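Tested at 5 concentrations; 48 h exposure; 96-well plates; endpoints linearly interpolated, else capped at highest concentration. GI50 marks 50% less growth. TGI denotes the concentration required for complete inhibition of growth.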
Legend:
Assay in all cases: NCI tumour cell line growth inhibition, 48 h
KM12 colon = system: KM12 colon
RPMI-8226 leukemia = system: RPMI-8226 leukemia
NCI/ADR-RES ovarian = system: NCI/ADR-RES ovarian
HCC-2998 colon = system: HCC-2998 colon
DU-145 prostate = system: DU-145 prostate
SK-OV-3 ovarian = system: SK-OV-3 ovarian
OVCAR-8 ovarian = system: OVCAR-8 ovarian
RXF 393 renal = system: RXF 393 renal
786-0 renal = system: 786-0 renal
SK-MEL-2 melanoma = system: SK-MEL-2 melanoma

Structure (SMILES)	GI50 (KM12 colon) [µM]	TGI (KM12 colon) [µM]	GI50 (RPMI-8226 leukemia) [µM]	TGI (RPMI-8226 leukemia) [µM]	GI50 (NCI/ADR-RES ovarian) [µM]	TGI (NCI/ADR-RES ovarian) [µM]	GI50 (HCC-2998 colon) [µM]	TGI (HCC-2998 colon) [µM]	GI50 (DU-145 prostate) [µM]	TGI (DU-145 prostate) [µM]	GI50 (SK-OV-3 ovarian) [µM]	TGI (SK-OV-3 ovarian) [µM]	GI50 (OVCAR-8 ovarian) [µM]	TGI (OVCAR-8 ovarian) [µM]	GI50 (RXF 393 renal) [µM]	TGI (RXF 393 renal) [µM]	TGI (786-0 renal) [µM]	TGI (SK-MEL-2 melanoma) [µM]	GI50 (SK-MEL-2 melanoma) [µM]
O=C(Cc1csc2nc(-c3ccc(Cl)cc3)cn12)N/N=C/c1ccccc1O	2.81	> 100	3.36	> 100	2.6	81.8	2.4	> 100	2.72	> 100	5.05	> 100	3.01	78.9	2.69	39.8			
Cc1n[n+]([O-])c(C)cc1[N+](=O)[O-]				6.31		42.1		25		51.2		> 100		31.6		66.3	> 100	42.3	
CC(C)CC1c2[nH]c3ccccc3c2C[C@H]2C(=O)NC(CCCCNC(=O)OC(C)(C)C)C(=O)N12 (some centres not stated)		> 100		58.5		> 100				> 100				> 100		27.3	50.7	46.8	
COc1ccc(-n2c3c(c4cc(O)ccc42)Cc2ccccc2C3=O)cc1		> 100		32.7		> 100				> 100		57		> 100		9.38	> 100	> 100	
Cc1cc2ccc(OC(=O)c3ccc(N=C(N)N)cc3)cc2oc1=O		61.1		55.1		> 100				> 100		46.4		> 100		> 100	64.6	60.9	
Clc1ccc(Nc2nc(Nc3ccccc3)nc(Nc3ccc(-c4cc(-c5ccc(Cl)cc5)on4)cc3)n2)cc1	13.5	52.4	18.7	> 100	21.1	> 100	29.1	> 100	20.4	80.3	29	> 100	21.4	> 100	11.3	37.6		> 100	24.1
COc1cc(C2SCC(=O)N2c2ccc(NC(C)=O)cc2)cc(OC)c1OC (configuration not stated)		> 100		> 100		> 100		> 100		> 100		> 100		> 100			> 100	> 100	
O=C(O)C(O)C(O)C(O)C(O)C(=O)O (configuration not stated)		> 100				> 100		> 100		> 100		> 100		> 100		> 100	> 100	> 100	
N=c1ccc2nc(N)nn(O)c-2c1		> 100		> 100		> 100				> 100		> 100		> 100			> 100	> 100	
CC1(C(=O)O)C[C@](C)(C(=O)OCc2ccccc2)C[C@](C)(C(=O)OCc2ccccc2)C1 (some centres not stated)		99.5		72.6		> 100		79.8		> 100		> 100		> 100		56.4	> 100	39.3	
O=C(CC(c1ccccc1)C1C(=O)NC(=S)NC1=O)c1ccc([N+](=O)[O-])cc1 (configuration not stated)		> 100		> 100		> 100		> 100		> 100		> 100		> 100			> 100	> 100	
COc1ccc(-c2nn(-c3ccc(NC(=O)c4cc(Cl)cc(Cl)c4)cc3)cc2-c2ccncc2)cc1Cl	4.29	> 100	0.494	3.26	> 100	> 100	> 100	> 100	> 100	> 100			> 100	> 100	0.362	1.23		> 100	2.79
Cc1cc(S(=O)(=O)NC2=NCCN2Cc2ccccc2)c(S)cc1Cl		> 100		> 100		> 100		> 100		> 100		> 100		> 100			> 100	> 100	
CCOC(=O)c1c(-c2cccc(Cl)c2)c(C(=O)OC)c(C)c2sc(C=O)nc12		37.8		46.4		68.5				37.8		92.2		41.9		44.6		37.1	
C[N+]1(CCC(=O)c2ccccc2)CCC2CCC(C2)C1 (configuration not stated)		> 100		> 100		> 100		> 100		> 100		> 100		> 100		> 100	> 100	> 100	
O=C(O)C1CCCCN1C(=O)Cc1c[nH]c2ccccc12 (configuration not stated)		> 100		> 100		> 100		> 100		> 100		> 100		> 100		> 100	> 100	> 100	
CN(C)C(=O)OC1=CC2CCC(C1)N2C (configuration not stated)		> 100		> 100		> 100				> 100		> 100		> 100		> 100	> 100	> 100	

Structure (SMILES)	GI50 (KM12 colon) [µM]	TGI (KM12 colon) [µM]	GI50 (RPMI-8226 leukemia) [µM]	TGI (RPMI-8226 leukemia) [µM]	GI50 (NCI/ADR-RES ovarian) [µM]	TGI (NCI/ADR-RES ovarian) [µM]	GI50 (HCC-2998 colon) [µM]	TGI (HCC-2998 colon) [µM]	GI50 (DU-145 prostate) [µM]	TGI (DU-145 prostate) [µM]	GI50 (SK-OV-3 ovarian) [µM]	TGI (SK-OV-3 ovarian) [µM]	GI50 (OVCAR-8 ovarian) [µM]	TGI (OVCAR-8 ovarian) [µM]	GI50 (RXF 393 renal) [µM]	TGI (RXF 393 renal) [µM]	TGI (786-0 renal) [µM]	TGI (SK-MEL-2 melanoma) [µM]	GI50 (SK-MEL-2 melanoma) [µM]
COC(=O)C1CC23C4=C(CCC41)CCC1CN4CC(C)C(CC(OC(C)=O)C12COC(C)=O)C43O (configuration not stated)		> 100		> 100		> 100		> 100		> 100		> 100		> 100		> 100	> 100	> 100	
O/C(=C\c1nc2ccccc2nc1/C=C(\O)c1ccc(F)cc1)c1ccc(F)cc1		> 100		> 100		> 100		> 100		> 100				> 100		> 100	> 100	> 100	
Cn1c2[n+](c3nc(N)[nH]c(=O)c31)C1OC(C2)C(O)C1O (configuration not stated)		> 100						> 100				> 100		> 100		> 100	> 100	> 100	
Cc1ccc2nc(-c3ccc(NC(=O)c4ccc(N)cc4)c(S(=O)(=O)O)c3)sc2c1		> 100		> 100		> 100		> 100		> 100		> 100		> 100		> 100	> 100		
O=C(Nc1ccc(-n2ccc3c(NC(=O)c4ccccc4)nccc32)cc1)Nc1cccc(C(F)(F)F)c1	0.41	11.3	1.64	4.81	10.9	28.7	7.46	22.4	4.2	14.8			4.35	17.9	2.24	7.64		30.3	15
CCOCC(=O)N(C)c1cccc2c3c(n(C)c12)CCCCC3		> 100				> 100		> 100				> 100		> 100		> 100		> 100	
CS(C)(=O)=Nn1c(=O)n2n(c1=O)C1c3ccccc3C2c2ccccc21				> 100		> 100				> 100		> 100		> 100		> 100		> 100	
N#Cc1ccccc1C#C/C=C\C#Cc1ccccc1N	2.55	> 51.3	2.28	> 93	2.44	29.2	0.808	4.11	13.9	> 100	3.22	> 100	7.27	> 30	7	> 23.7		8.2	1.17
O=C1/C(=C/c2[nH]ncc2-c2ccc(Cl)cc2)C(=O)N(c2ccccc2)C1c1ccccc1 (configuration not stated)		79.5		32.2		> 100				50.3		56.3				49.4	44.7	35.2	
O=S(=O)(O)c1ccc2c(N=Nc3ccc(N=Nc4ccccc4)cc3)c(O)c(S(=O)(=O)O)cc2c1		> 100		> 100		> 100		> 100		> 100		> 100		> 100		> 100	> 100	> 100	
O=C1C2Cc3c(n(C(=O)c4ccccc4)c4ccccc34)CC2C(=O)N1c1ccc(Nc2ccc(N3C(=O)C4Cc5c(n(C(=O)c6ccccc6)c6ccccc56)CC4C3=O)cc2)cc1 (configuration not stated)		> 100				> 100		> 100		> 100		> 100		> 100		> 100	> 100		
Cc1cc(C)c2c(=O)n(CC(O)CN3CCN(CCOCCO)CC3)sc2n1 (configuration not stated)		48				> 100				48.2		60.7		39.9		21	30.6	39.9	
CC1=C[C@@H](C)C[C@]2(C)CC[C@H](O2)[C@]23CC[C@](CO)(C[C@H](O2)[C@@H]2O[C@@](C)(CC2=O)[C@@H](O)[C@H]2CC[C@@]4(CCC[C@@H](O4)[C@H](C)C(=O)O[C@H]4C[C@H]([C@]5(O)OCC[C@H](C)[C@@H]5O)O[C@H]4C=C1)O2)O3		> 10		> 10		> 10		> 10		> 10		0.159		> 4.19		0.0801		> 2.45	
Nc1nnc(CCC(=O)Nc2cc(Cl)ccc2Cl)n1N		> 100		> 100				> 100				> 100		> 100		> 100		> 100	
Nc1cc(S(=O)(=O)O)cc2ccc(S(=O)(=O)O)cc12		> 100		> 100		> 100		> 100		> 100		> 100		> 100		> 100	> 100	> 100	
O=C(/C=C1\N=C(c2ccccc2)N(c2nc3c(Cl)cc(Cl)cc3s2)C1=O)/C=C/c1ccccc1		> 100		> 100		> 100		> 100		> 100		> 100		> 100		> 100	> 100	> 100	
COc1cccc(/C=N/[N-]C(N)=O)c1[O-].[Ni+2].[OH3+]		0.91		4.13				1.02				1.69		1.66		0.8	0.474	1.46	
